# Results taken from patent publication US11279733B2, “Peptide antibiotics” (priority 2017, dated 2022).
# Read-outs that look alike come from different tables or passages of the source. Starred links: 1 amine or outer side, 2 acyl side, 3 side chain; linkers in the order of their positions; H or OH if unused. Positions of bridges follow the written chain, without caps; N, C: chain ends. Non-standard residues stand in square brackets, D forms with d. Residues, ends and D or L forms follow the SMILES beside them. *: point of attachment. Decanoyl(3R-OH) = CCCCCCC[C@@H](O)CC(=O)*; azaLeu = CC(C)CN(N[*:1])C(=O)[*:2]; Nonanoyl = CCCCCCCCC(=O)*; dDab = NCC[C@@H](N)C(=O)O; Dab = NCC[C@H](N)C(=O)O; Dap = NC[C@H](N)C(=O)O
# How the values were obtained:
# P. aeruginosa ATCC 27853 = settings: ATCC 27853
# Procedure: (§1) Bacteria were either obtained from American Type Culture Collection (ATCC; Manassas, Va., USA) or independent academic clinical isolate collections, as listed in Table 18 below. Bacteria were cultured in Nutrient broth (NB; Bacto Laboratories, catalogue No. 234000) or Mueller Hinton broth (MHB; Bacto Laboratories, catalogue No. 211443) at 37° C. overnight with shaking (˜180 RPM). A sample of each culture was then diluted 50-fold in fresh MHB and incubated at 37° C. for 2-3 h with shaking (˜180 RPM). Compound stock solutions were prepared as 0.64 mg/mL or 2.56 mg/mL in water. The compounds, at twice the final desired concentration, were serially diluted 2-fold across the wells of 96-well plates (Polystyrene, Corning, catalogue No. 3370). Mid-log phase bacterial cultures (after 2-3 h incubation) were diluted to a final concentration of 1×10^6 colony forming units (CFU)/mL, and 50 μL was added to each well giving a final cell density of 5×10^5 and a compound concentration range of 32 μg/mL to 0.015 μg/mL (128-0.06 μg/mL against P. aeruginosa PA9704).
# K. pneumoniae ATCC 13883 = settings: ATCC 13883
# Procedure: as §1
# [1] = system: K. pneumoniae GN_106, PmxR; settings: GN 106, PmxR
# Procedure: as §1
# A. baumannii GN_093 PmxR = settings: GN 093 PmxR
# Procedure: as §1
# A. baumannii ATCC 19606 = settings: ATCC 19606
# Procedure: as §1
# E. coli ATCC 25922 = settings: ATCC 25922
# Procedure: as §1
# [2] = system: K. pneumoniae ATCC 700603, MDR; settings: ATCC 700603
# Procedure: as §1
# [3] = system: K. pneumoniae ATCC BAA-2146, NDM-1 pos; settings: ATCC BAA-2146
# Procedure: as §1
# [4] = system: P. aeruginosa GN_043, PmxR
# Procedure: as §1
# [5] = system: S. aureus ATCC 25923, MSSA; settings: ATCC 25923
# Procedure: as §1
# [6] = system: K. pneumoniae GN_102 PmxR; settings: GN 102 PmxR
# Procedure: as §1
# [7] = system: P. aeruginosa GN_105, PmxR; settings: GN 105, PmxR
# Procedure: as §1
SMILES,"MIC, P. aeruginosa ATCC 27853 (P. aeruginosa ATCC 27853)","MIC, K. pneumoniae ATCC 13883 (K. pneumoniae ATCC 13883)","MIC K. pneumoniae GN_106, PmxR [1]",MIC A. baumannii GN_093 PmxR (A. baumannii GN_093 PmxR),"MIC, A. baumannii ATCC 19606 (A. baumannii ATCC 19606)","MIC, E. coli ATCC 25922 (E. coli ATCC 25922)","MIC, K. pneumoniae ATCC 700603, MDR [2]","MIC, K. pneumoniae ATCC BAA-2146, NDM-1 pos [3]",MIC K. pneumoniae GN_102 PmxR [6],"MIC P. aeruginosa GN_105, PmxR [7]",MIC P. aeruginosa ATCC 27853 (P. aeruginosa ATCC 27853),MIC K. pneumoniae ATCC 13883 (K. pneumoniae ATCC 13883),MIC A. baumannii ATCC 19606 (A. baumannii ATCC 19606),MIC E. coli ATCC 25922 (E. coli ATCC 25922),"MIC K. pneumoniae ATCC 700603, MDR [2]","MIC K. pneumoniae ATCC BAA-2146, NDM-1 pos [3]","MIC S. aureus ATCC 25923, MSSA [5]",further results
"CCCCCCC[C@@H](O)CC(=O)N[C@H](CC(N)=O)C(=O)N[C@H]1CCNC(=O)[C@H](CC(C)C)NC(=O)[C@H](CCN)NC(=O)[C@H](CCN)NC(=O)[C@H](CC(C)C)NC(=O)[C@@H](Cc2ccccc2)NC(=O)[C@H](CCN)NC1=O [compound 6447, 3(R)OH-nC9CO-D-Asn-cyc[L-Dab-L-Dab-D-Phe-L-Leu-L-Dab-L-Dab-L-Leu]] ({Decanoyl(3R-OH)}-[dN][Dab][Dab][dF]L[Dab][Dab]L; lactam 2-C)",8 µg/mL,4 µg/mL,4 µg/mL,8 µg/mL,16 µg/mL,4 µg/mL,8 µg/mL,8 µg/mL,4 µg/mL,4 µg/mL,–,–,–,–,–,–,–,"MIC P. aeruginosa GN_043, PmxR ([4]; Table 6, polymyxin-resistant): 8 µg/mL; MIC, S. aureus ATCC 25923, MSSA [5]: 32 µg/mL"
"CCCCCCC[C@@H](O)CC(=O)N[C@H](CCN)C(=O)N[C@H]1CCNC(=O)[C@H](CC(C)C)NC(=O)[C@H](CCN)NC(=O)[C@H](CCN)NC(=O)[C@H](CC(C)C)NC(=O)[C@@H](Cc2ccccc2)NC(=O)[C@H](CN)NC1=O [compound 993, 3(R)OH-nC9CO-D-Dab-cyc[L-Dab-L-Dap-D-Phe-L-Leu-L-Dab-L-Dab-L-Leu]] ({Decanoyl(3R-OH)}-[dDab][Dab][Dap][dF]L[Dab][Dab]L; lactam 2-C)",2 µg/mL,4 µg/mL,–,–,8 µg/mL,2 µg/mL,4 µg/mL,8 µg/mL,–,–,–,–,–,–,–,–,–,"MIC, K. pneumoniae Cl 138-16347-20362, PmxR [1]: 2 µg/mL; MIC, A. baumannii Cl Ptyela 10073 4512:2, PmxR (A. baumannii GN_093 PmxR): 16 µg/mL; MIC, P. aeruginosa FADDI-PA070, PmxR ([4]; Table 5, polymyxin-resistant): 2 µg/mL; MIC, S. Aureus ATCC 25923, MSSA [5]: 8 µg/mL; MIC, K. pneumoniae Cl Koprana 10065 0661:1, PmxR [6]: 2 µg/mL; MIC, P. aeruginosa PA9704, PmxR [7]: 2 µg/mL"
"CCCCCCCCC(=O)N[C@@H](CCN)C(=O)N[C@H](C(=O)N[C@@H](CCN)C(=O)N[C@H]1CCNC(=O)[C@H](Cc2c[nH]c3ccccc23)NC(=O)[C@H](CCN)NC(=O)[C@H](CCN)NC(=O)[C@H](CC(C)C)NC(=O)[C@@H](Cc2ccccc2)NC(=O)[C@H](CCN)NC1=O)[C@@H](C)O [compound 9032, nC8CO-L-Dab-L-Thr-L-Dab-cyc[L-Dab-L-Dab-D-Phe-L-Leu-L-Dab-L-Dab-L-Trp]] (Nonanoyl-[Dab]T[Dab][Dab][Dab][dF]L[Dab][Dab]W; lactam 4-C)",–,–,4 µg/mL,8 µg/mL,–,–,–,–,4 µg/mL,2 µg/mL,2 µg/mL,8 µg/mL,8 µg/mL,4 µg/mL,8 µg/mL,8 µg/mL,16 µg/mL,"MIC P. aeruginosa GN_043, PmxR ([4]; polymyxin-resistant): 1 µg/mL"
"CCCCCCC[C@@H](O)CC(=O)N[C@H](CCN)C(=O)N[C@H]1CCNC(=O)[C@H](CC(C)C)NC(=O)[C@H](CCN)NC(=O)[C@H](CCN)NC(=O)N(CC(C)C)NC(=O)[C@@H](Cc2ccccc2)NC(=O)[C@H](CCN)NC1=O [compound 8803, 3(R)OH-nC9CO-D-Dab-cyc[L-Dab-L-DAB-D-Phe-azaLeu-L-Dab-L-Dab-L-Leu]] ({Decanoyl(3R-OH)}-[dDab][Dab][Dab][dF][azaLeu][Dab][Dab]L; lactam 2-C)",–,–,–,–,–,–,–,–,–,–,4 µg/mL,8 µg/mL,8 µg/mL,2 µg/mL,8 µg/mL,8 µg/mL,16 µg/mL,"MIC K. pneumoniae Cl 183-16357-20352, PmxR [1]: 4 µg/mL; MIC A. baumannii Cl Ptyela 10073 4512:2, PmxR (A. baumannii GN_093 PmxR): 32 µg/mL; MIC, P. aeruginosa FADDI-PA070, PmxR ([4]; strain name as in Table 11): 1 µg/mL; MIC K. pneumoniae Cl Koprana 10065 0661:1 PmxR [6]: 2 µg/mL; MIC P. aeruginosa PA9704, PmxR [7]: 2 µg/mL"
